Data taken from PubChem BioAssay (NCI).
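Abbreviation: GI50, concentration required for 50% inhibition of growth. TGI: total growth inhibition.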

Experiments:
Assay in all cases: NCI anticancer screen, dose series, 384-well format
SK-MEL-5 melanoma = test system: SK-MEL-5 melanoma
RPMI-8226 leukemia = test system: RPMI-8226 leukemia
HCC-2998 colon = test system: HCC-2998 colon
RXF 393 renal = test system: RXF 393 renal
KM12 colon = test system: KM12 colon
SK-OV-3 ovarian = test system: SK-OV-3 ovarian
NCI-H460 NSCLC = test system: NCI-H460 NSCLC
A549 NSCLC = test system: A549 NSCLC
SNB-19 CNS = test system: SNB-19 CNS
UACC-62 melanoma = test system: UACC-62 melanoma
NCI-H322M lung = test system: NCI-H322M lung
UACC-257 melanoma = test system: UACC-257 melanoma
HCT-15 colon = test system: HCT-15 colon
DU-145 prostate = test system: DU-145 prostate
BT-549 breast = test system: BT-549 breast
SF-268 CNS = test system: SF-268 CNS
OVCAR-3 ovarian = test system: OVCAR-3 ovarian
MDA-MB-231 breast = test system: MDA-MB-231 breast
T-47D breast = test system: T-47D breast
CCRF-CEM leukemia = test system: CCRF-CEM leukemia
HS 578T breast = test system: HS 578T breast
M14 melanoma = test system: M14 melanoma
SNB-75 CNS = test system: SNB-75 CNS
MOLT-4 leukemia = test system: MOLT-4 leukemia
HT29 colon = test system: HT29 colon
OVCAR-8 ovarian = test system: OVCAR-8 ovarian
UO-31 renal = test system: UO-31 renal
HL-60(TB) leukemia = test system: HL-60(TB) leukemia
SW-620 colon = test system: SW-620 colon
CAKI-1 renal = test system: CAKI-1 renal
OVCAR-4 ovarian = test system: OVCAR-4 ovarian
SK-MEL-28 melanoma = test system: SK-MEL-28 melanoma
NCI-H23 lung = test system: NCI-H23 lung
PC-3 prostate = test system: PC-3 prostate
EKVX NSCLC = test system: EKVX NSCLC
NCI-H522 lung = test system: NCI-H522 lung
MDA-MB-435 melanoma = test system: MDA-MB-435 melanoma
SF-539 CNS = test system: SF-539 CNS
A498 renal = test system: A498 renal
MDA-MB-468 breast = test system: MDA-MB-468 breast
MCF7 breast = test system: MCF7 breast
HOP-92 NSCLC = test system: HOP-92 NSCLC
COLO 205 colon = test system: COLO 205 colon
NCI/ADR-RES ovarian = test system: NCI/ADR-RES ovarian
NCI-H226 lung = test system: NCI-H226 lung
TK-10 renal = test system: TK-10 renal
K-562 leukemia = test system: K-562 leukemia
HOP-62 NSCLC = test system: HOP-62 NSCLC
ACHN renal = test system: ACHN renal
IGROV1 ovarian = test system: IGROV1 ovarian
SR leukemia = test system: SR leukemia
LOX IMVI melanoma = test system: LOX IMVI melanoma
786-0 renal = test system: 786-0 renal
MALME-3M melanoma = test system: MALME-3M melanoma
SN12C renal = test system: SN12C renal
OVCAR-5 ovarian = test system: OVCAR-5 ovarian
SF-295 CNS = test system: SF-295 CNS

## Cc1cc2c(C(N)=O)cccc2n1-c1nc2c(c(NCc3ccccc3)n1)CCCN2
SK-MEL-5 melanoma
  GI50: 34.9 nM
  TGI: 106 nM
RPMI-8226 leukemia
  GI50: 20.8 nM
  TGI: 41.5 nM
HCC-2998 colon
  GI50: 166 nM
  TGI: 305 nM
RXF 393 renal
  GI50: 78.5 nM
  TGI: 206 nM
KM12 colon
  GI50: 168 nM
  TGI: 310 nM
SK-OV-3 ovarian
  GI50: 246 nM
  TGI: 497 nM
NCI-H460 NSCLC
  GI50: 177 nM
  TGI: 324 nM
A549 NSCLC
  GI50: 182 nM
  TGI: 339 nM
SNB-19 CNS
  GI50: 191 nM
  TGI: 336 nM
UACC-62 melanoma
  GI50: 129 nM
  TGI: 258 nM
NCI-H322M lung
  GI50: 200 nM
  TGI: 374 nM
UACC-257 melanoma
  GI50: 173 nM
  TGI: 313 nM
HCT-15 colon
  GI50: 155 nM
  TGI: 295 nM
DU-145 prostate
  GI50: 195 nM
  TGI: 351 nM
BT-549 breast
  GI50: 193 nM
  TGI: 342 nM
SF-268 CNS
  GI50: 174 nM
  TGI: 313 nM
OVCAR-3 ovarian
  GI50: 138 nM
  TGI: 270 nM
MDA-MB-231 breast
  GI50: 181 nM
  TGI: 323 nM
T-47D breast
  GI50: 162 nM
  TGI: 299 nM
CCRF-CEM leukemia
  GI50: 162 nM
  TGI: 299 nM
HS 578T breast
  GI50: 78.8 nM
  TGI: 204 nM
M14 melanoma
  GI50: 170 nM
  TGI: 309 nM
SNB-75 CNS
  GI50: 194 nM
  TGI: 338 nM
MOLT-4 leukemia
  GI50: 150 nM
  TGI: 284 nM
HT29 colon
  GI50: 168 nM
  TGI: 310 nM
OVCAR-8 ovarian
  GI50: 159 nM
  TGI: 296 nM
UO-31 renal
  GI50: 171 nM
  TGI: 318 nM
HL-60(TB) leukemia
  GI50: 162 nM
  TGI: 300 nM
SW-620 colon
  GI50: 176 nM
  TGI: 316 nM
CAKI-1 renal
  GI50: 170 nM
  TGI: 317 nM
OVCAR-4 ovarian
  GI50: 184 nM
  TGI: 325 nM
SK-MEL-28 melanoma
  GI50: 177 nM
  TGI: 318 nM
NCI-H23 lung
  GI50: 134 nM
  TGI: 263 nM
PC-3 prostate
  GI50: 188 nM
  TGI: 331 nM
EKVX NSCLC
  GI50: 162 nM
  TGI: 303 nM
NCI-H522 lung
  GI50: 125 nM
  TGI: 252 nM
MDA-MB-435 melanoma
  GI50: 178 nM
  TGI: 320 nM
SF-539 CNS
  GI50: 167 nM
  TGI: 305 nM
A498 renal
  GI50: 162 nM
  TGI: 303 nM
MDA-MB-468 breast
  GI50: 223 nM
  TGI: 369 nM
MCF7 breast
  GI50: 142 nM
  TGI: 343 nM
HOP-92 NSCLC
  GI50: 154 nM
  TGI: 290 nM
COLO 205 colon
  GI50: 193 nM
  TGI: 339 nM
NCI/ADR-RES ovarian
  GI50: 182 nM
  TGI: 323 nM
NCI-H226 lung
  GI50: 102 nM
  TGI: 220 nM
TK-10 renal
  GI50: 179 nM
  TGI: 362 nM
K-562 leukemia
  GI50: 134 nM
  TGI: 269 nM
HOP-62 NSCLC
  GI50: 167 nM
  TGI: 305 nM
ACHN renal
  GI50: 157 nM
  TGI: 397 nM
IGROV1 ovarian
  GI50: 168 nM
  TGI: 315 nM
SR leukemia
  GI50: 115 nM
  TGI: 238 nM
LOX IMVI melanoma
  GI50: 101 nM
  TGI: 220 nM
786-0 renal
  GI50: 173 nM
  TGI: 314 nM
MALME-3M melanoma
  GI50: 151 nM
  TGI: 284 nM
SN12C renal
  GI50: 175 nM
  TGI: 315 nM
OVCAR-5 ovarian
  GI50: 183 nM
  TGI: 326 nM
SF-295 CNS
  GI50: 154 nM
  TGI: 290 nM
